We go through 20 compounds from US20240246964A1 (Arbutus Biopharma Corporation, priority 2021, published 2024).

In experiment [1] the target is PD-L1 His protein / PD-1 Fc protein (Homo sapiens (Human), UniProt Q9NZQ7). In words: HTRF Assay (PD-1/PD-L1 interaction). Type of experiment: binding. The following applies: PD-L1 His 6 nM, PD-1 Fc 6 nM.
Another experiment has as its target human PD-L1 (Homo sapiens (Human), UniProt Q9NZQ7). Nature of the experiment: T cell activation luciferase reporter cell culture system (T Cell Activation Assay). The experiment is classed as cell-based. The following applies: luciferase reporter assay; PD-L1 aAPC/CHO-K1 cells with PD-1 effector Jurkat T cells.

The structures appear in SMILES notation.

Sequence of human PD-L1 (Q9NZQ7 19-290): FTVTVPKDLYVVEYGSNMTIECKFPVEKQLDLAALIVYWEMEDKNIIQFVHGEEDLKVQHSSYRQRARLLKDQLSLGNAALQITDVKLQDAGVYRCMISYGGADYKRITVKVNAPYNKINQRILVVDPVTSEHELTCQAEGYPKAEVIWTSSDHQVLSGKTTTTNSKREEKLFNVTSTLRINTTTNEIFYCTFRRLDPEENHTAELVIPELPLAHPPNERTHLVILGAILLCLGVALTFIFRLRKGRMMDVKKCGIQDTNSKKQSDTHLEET
Sequence of PD-L1 His protein / PD-1 Fc protein (Q9NZQ7 19-238): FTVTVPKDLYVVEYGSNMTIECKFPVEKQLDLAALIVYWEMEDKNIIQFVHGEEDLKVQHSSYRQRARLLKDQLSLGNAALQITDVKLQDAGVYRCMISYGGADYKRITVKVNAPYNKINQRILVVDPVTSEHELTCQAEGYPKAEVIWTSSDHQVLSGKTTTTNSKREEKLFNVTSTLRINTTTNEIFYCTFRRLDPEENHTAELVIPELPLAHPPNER

Regarding `COc1cc(-c2nccc(-c3cccc(-c4ccc(CNC5CCC(F)(F)CC5)c(OC)n4)c3Cl)c2Cl)ccc1CNC1CCC(F)(F)CC1` [Example 327, N-((6-(2-Chloro-3-(3-chloro-2-(4-(((4,4-difluorocyclohexyl)amino)methyl)-3-methoxyphenyl)pyridin-4-yl)phenyl)-2-methoxypyridin-3-yl)methyl)-4,4-difluorocyclohexan-1-amine], in experiment [1], half-maximal inhibition (IC50) required 1.7 nM. Further, the EC50 at human PD-L1 is 178 nM.

Turning to `COc1cc(-c2nccc(-c3cccc(-c4ccc(CNC[C@@H]5CCC(=O)N5)c(OC)n4)c3Cl)c2Cl)cnc1CN[C@H]1CCOC1=O` [Compound 268, (S)-5-((((6-(2-Chloro-3-(3-chloro-5′-methoxy-6′-((((S)-2-oxotetrahydrofuran-3-yl)amino)methyl)-[2,3′-bipyridin]-4-yl)phenyl)-2-methoxypyridin-3-yl)methyl)-amino)methyl)pyrrolidin-2-one], the IC50 in experiment [1] was determined as 1.46 nM. The EC50 on human PD-L1 turned out to be 669 nM.

For `COCC(=O)N1CCC(NCc2ccc(-c3nccc(-c4cccc(-c5ccc(CNC6CCN(C(C)=O)CC6)c(OC)n5)c4Cl)c3Cl)cc2OC)CC1` [Example 413, 1-(4-((4-(4-(3-(5-(((1-Acetylpiperidin-4-yl)amino)methyl)-6-methoxypyridin-2-yl)-2-chlorophenyl)-3-chloropyridin-2-yl)-2-methoxybenzyl)amino)piperidin-1-yl)-2-methoxyethan-1-one], the IC50 in experiment [1] stood at 1.45 nM. The midpoint of the response on human PD-L1, the EC50, lay at 16.1 nM.

Take `COc1nc(-c2cccc(-c3ccnc(-c4ccc5c(c4)S(=O)(=O)CCNC5)c3Cl)c2Cl)ccc1CNC[C@@H]1CCC(=O)N1` [Compound 177, (S)-5-((((6-(2-chloro-3-(3-chloro-2-(1,1-dioxido-2,3,4,5-tetrahydrobenzo[f][1,4]pyridine1334n-8-yl)pyridine-4-yl)phenyl)-2-methoxypyridin-3-yl)methyl)amino)methyl)pyridine1334ne-2-one]: the IC50 in experiment [1] was 1.76 nM. The same compound displayed an EC50 on human PD-L1 of 176 nM.

`COc1cc(-c2nccc(-c3cccc(-c4ccc(CN5CC6(C5)CN(C(C)=O)C6)c(OC)n4)c3Cl)c2Cl)ccc1CN1CC2(CNC(=O)C2)C1` [Example 519, 2-(4-(4-(3-(5-((6-Acetyl-2,6-diazaspiro[3.3]heptan-2-yl)methyl)-6-methoxypyridin-2-yl)-2-chlorophenyl)-3-chloropyridin-2-yl)-2-methoxybenzyl)-2,6-diazaspiro[3.4]octan-7-one]: half-maximal inhibition in experiment [1] (IC50) was put at 1.86 nM. Also, the response on human PD-L1 was half-maximal at 12.8 nM (EC50).

`COc1cc(-c2nccc(-c3cccc(-c4ccc5c(CNC6CCN(C(C)=O)CC6)cn(C)c5n4)c3Cl)c2Cl)ccc1CN1CC2(CNC(=O)C2)C1` [Compound 579, 2-(4-(4-(3-(3-(((1-Acetylpiperidin-4-yl)amino)methyl)-1-methyl-1H-pyrrolo[2,3-b]pyridin-6-yl)-2-chlorophenyl)-3-chloropyridin-2-yl)-2-methoxybenzyl)-2,6-diazaspiro[3.4]octan-7-one] returned an IC50 in experiment [1] of 0.3 nM. At human PD-L1, a half-maximal effect (EC50) was put at 101 nM.

Take `COc1nc(-c2cccc(-c3ccnc(-c4cc(OC)c5nc(CN6CC7(C6)CN(C(C)=O)C7)nn5c4)c3Cl)c2Cl)ccc1CNC(C)C` [Compound 767, 1-(6-((6-(3-Chloro-4-(2-chloro-3-(5-((isopropylamino)methyl)-6-methoxypyridin-2-yl)phenyl)pyridin-2-yl)-8-methoxy-[1,2,4]triazolo[1,5-a]pyridin-2-yl)methyl)-2,6-diazaspiro[3.3]heptan-2-yl)ethan-1-one]: half-maximal inhibition in experiment [1] (IC50) required 0.24 nM. At human PD-L1, this compound yielded an EC50 of 92.1 nM.

Consider `COc1nc(-c2cccc(-c3ccnc(-c4cc5c(OC)nc(CN6CC(C)(O)C6)nn5c4)c3Cl)c2Cl)ccc1CNC[C@@H]1CCC(=O)N1` [Example 697, (S)-5-((((6-(2-Chloro-3-(3-chloro-2-(2-((3-hydroxy-3-methylazetidin-1-yl)methyl)-4-methoxypyrrolo[2,1-f][1,2,4]triazin-6-yl)pyridin-4-yl)phenyl)-2-methoxypyridin-3-yl)methyl)amino)methyl)pyrrolidin-2-one], for which half-maximal inhibition in experiment [1] (IC50) required 6.26 nM. In addition, the response at human PD-L1 was half-maximal at 120 nM (EC50).

Regarding `COc1cc(-c2ncnc(-c3cccc(NC(=O)c4cn(C)c(=O)n(C)c4=O)c3Cl)c2Cl)ccc1CNC[C@@H]1CCC(=O)N1` [Compound 708, (S)—N-(2-Chloro-3-(5-chloro-6-(3-methoxy-4-((((5-oxopyrrolidin-2-yl)methyl)amino)methyl)phenyl)pyrimidin-4-yl)phenyl)-1,3-dimethyl-2,4-dioxo-1,2,3,4-tetrahydropyrimidine-5-carboxamide], in experiment [1], the IC50 was found to be 0.29 nM. In addition, the half-maximal effective concentration (EC50) at human PD-L1 worked out at 1320 nM.

In turn, `CNCc1ccc(-c2cccc(-c3ccnc(-c4ccc(CNCCC(=O)O)c(OC)c4)c3Cl)c2Cl)nc1OC` [Compound 221, 3-((4-(3-chloro-4-(2-chloro-3-(6-methoxy-5-((methylamino)methyl)pyridin-2-yl)phenyl)pyridin-2-yl)-2-methoxybenzyl)amino)propanoic acid] had an IC50 in experiment [1] of 0.2 nM. The same compound returned an EC50 on human PD-L1 of 64.4 nM.

Compound `COc1cc(CNCCO)cc(-c2nccc(-c3cccc(-c4ccc(CNCCO)c(OC)n4)c3Cl)c2Cl)c1` [Compound 156, 2-(((6-(2-chloro-3-(3-chloro-2-(3-(((2-hydroxyethyl)amino)methyl)-5-methoxyphenyl)pyridin-4-yl)phenyl)-2-methoxypyridin-3-yl)methyl)amino)ethan-1-ol] yielded an IC50 in experiment [1] of 1.18 nM. Besides, the concentration for a half-maximal effect (EC50) on human PD-L1 was ≥ 10000 nM.

In experiment [1], `COc1cc(-c2nccc(-c3cccc(-c4ccc(CNC[C@@H]5CCC(=O)N5)c(OC)n4)c3Cl)c2Cl)ccc1CNC1(C(=O)OC(C)C)CC1` [Compound 135, isopropyl (S)-1-((4-(3-chloro-4-(2-chloro-3-(6-methoxy-5-((((5-oxopyrrolidin-2-yl)methyl)amino)methyl)pyridin-2-yl)phenyl)pyridin-2-yl)-2-methoxybenzyl)amino)cyclopropane-1-carboxylate] returned an IC50 of 31.2 nM. The EC50 at human PD-L1 is ≥ 10000 nM.

Take `COc1nc(-c2ccnc(-c3cccc4c3CCC[C@@H]4Nc3nc(OC)c(CN4CC5(CNC(=O)C5)C4)cc3C(F)(F)F)c2Cl)ccc1CNC[C@@H]1CCC(=O)N1` [Example 720, 2-((6-(((S)-5-(3′-Chloro-6-methoxy-5-(((((S)-5-oxopyrrolidin-2-yl)methyl)amino)methyl)-[2,4′-bipyridin]-2′-yl)-1,2,3,4-tetrahydronaphthalen-1-yl)amino)-2-methoxy-5-(trifluoromethyl)pyridin-3-yl)methyl)-2,6-diazaspiro[3.4]octan-7-one]: half-maximal inhibition in experiment [1] (IC50) required 34.4 nM. For the same compound, on human PD-L1, the EC50 is ≥ 10000 nM.

`COc1nc(-c2cccc(-c3ccnc(-c4ccc5c(c4)OCCNC5)c3Cl)c2Cl)ccc1CNC[C@@H]1CCC(=O)N1` [Compound 26, (S)-5-((((6-(2-chloro-3-(3-chloro-2-(2,3,4,5-tetrahydrobenzo[f][1,4]oxazepin-8-yl)pyridin-4-yl)phenyl)-2-methoxypyridin-3-yl)methyl)amino)methyl)pyrrolidin-2-one] had an IC50 in experiment [1] of 0.2 nM. Further, on human PD-L1, a half-maximal response (EC50) required 77.3 nM.

Turning to `COc1cc(-c2nccc(-c3cccc(-c4ccc(CNC5CCOCC5)c(OC)n4)c3C)c2Cl)ccc1CNC1CCOCC1` [Example 426, N-((6-(3-(3-chloro-2-(3-methoxy-4-(((tetrahydro-2H-pyran-4-yl)amino)methyl)phenyl)pyridin-4-yl)-2-methylphenyl)-2-methoxypyridin-3-yl)methyl)tetrahydro-2H-pyran-4-amine], the IC50 in experiment [1] stood at 4.23 nM. Moreover, the EC50 on human PD-L1 is 98.8 nM.

Compound `CCC(=O)N1CCC(NCc2ccc(-c3cccc(-c4ccnc(-c5cc(F)c(CNC6CCN(C(=O)CC)CC6)c(OC)c5)c4Cl)c3Cl)nc2OC)CC1` [Example 331, 1-(4-(((6-(2-Chloro-3-(3-chloro-2-(3-fluoro-5-methoxy-4-(((1-propionylpiperidin-4-yl)amino)methyl)phenyl)pyridin-4-yl)phenyl)-2-methoxypyridin-3-yl)methyl)amino)piperidin-1-yl)propan-1-one] gave an IC50 in experiment [1] of 23.6 nM. In addition, the EC50 on human PD-L1 amounted to 17 nM.

`COc1nc(-c2cccc(-c3nccc(-c4ccc(CNC5CCN(C(C)=O)CC5)c(OC)n4)c3Cl)c2Cl)ccc1CN1CC2(CNC(=O)C2)C1` [Compound 682, 2-((6-(3-(5-(((1-Acetylpiperidin-4-yl)amino)methyl)-3′-chloro-6-methoxy-[2,4′-bipyridin]-2′-yl)-2-chlorophenyl)-2-methoxypyridin-3-yl)methyl)-2,6-diazaspiro[3.4]octan-7-one] displayed an IC50 in experiment [1] of 0.17 nM. This compound also showed an EC50 at human PD-L1 of 24.6 nM.

As to `COc1nc(-c2cccc(-c3ccnc(-c4cc(Cl)c5c(c4)CCN(CCC(C)(C)O)C5)c3Cl)c2Cl)ccc1CNC[C@@H]1CCC(=O)N1` [Compound 208, (S)-5-((((6-(2-chloro-3-(3-chloro-2-(8-chloro-2-(3-hydroxy-3-methylbutyl)-1,2,3,4-tetrahydroisoquinolin-6-yl)pyridin-4-yl)phenyl)-2-methoxypyridin-3-yl)methyl)amino)methyl)pyrrolidin-2-one], it took 8.04 nM to reach half-maximal inhibition in experiment [1] (IC50). Further, at human PD-L1, the EC50 amounted to 82 nM.

With `CNCc1ccc(-c2cccc(-c3ccnc(-c4cc(CN5CC[C@H](C(=O)O)C5)cc(OC)c4)c3Cl)c2Cl)nc1OC` [Compound 171, (S)-1-(3-(3-chloro-4-(2-chloro-3-(6-methoxy-5-((methylamino)methyl)pyridine-2-yl)phenyl)pyridine-2-yl)-5-methoxybenzyl)pyrrolidine-3-carboxylic acid], the IC50 in experiment [1] was 1.65 nM. This compound also displayed an EC50 at human PD-L1 of 670 nM.

In turn, `COc1cc(-c2nccc(-c3cccc4c3CC[C@@H]4Oc3nc(OC)c(CN4CC5(CNC(=O)C5)C4)cc3C(F)(F)F)c2Cl)cc(F)c1CN1CC2(CNC(=O)C2)C1` [Example 306, (S)-2-(4-(3-chloro-4-(1-((6-methoxy-5-((7-oxo-2,6-diazaspiro[3.4]octan-2-yl)methyl)-3-(trifluoromethyl)pyridin-2-yl)oxy)-2,3-dihydro-1H-inden-4-yl)pyridin-2-yl)-2-fluoro-6-methoxybenzyl)-2,6-diazaspiro[3.4]octan-7-one] returned an IC50 in experiment [1] of 0.76 nM. Further, the EC50 at human PD-L1 came to 361 nM.
